Laboratory results as given in ChEMBL document CHEMBL4138216, “Design, synthesis and structure-activity relationship of a focused library of β-phenylalanine derivatives as novel eEF2K inhibitors with apoptosis-inducing mechanisms in breast cancer” (Eur J Med Chem, 2018).

Columns and labels:
MDA-MB-231 = assay: cells; conditions: Homo sapiens, MDA-MB-231, 24 h
Description: Antiproliferative activity against human MDA-MB-231 cells assessed as decrease in cell viability after 24 hrs by MTT assay

[1] = target: T1, Eukaryotic elongation factor 2 kinase (Homo sapiens, UniProt O00418); assay: Inhibition of eEF2K (unknown origin) using peptide MH-1 as substrate after 2 hrs by ADP-Glo luminescent assay
T1 sequence (O00418 whole entry): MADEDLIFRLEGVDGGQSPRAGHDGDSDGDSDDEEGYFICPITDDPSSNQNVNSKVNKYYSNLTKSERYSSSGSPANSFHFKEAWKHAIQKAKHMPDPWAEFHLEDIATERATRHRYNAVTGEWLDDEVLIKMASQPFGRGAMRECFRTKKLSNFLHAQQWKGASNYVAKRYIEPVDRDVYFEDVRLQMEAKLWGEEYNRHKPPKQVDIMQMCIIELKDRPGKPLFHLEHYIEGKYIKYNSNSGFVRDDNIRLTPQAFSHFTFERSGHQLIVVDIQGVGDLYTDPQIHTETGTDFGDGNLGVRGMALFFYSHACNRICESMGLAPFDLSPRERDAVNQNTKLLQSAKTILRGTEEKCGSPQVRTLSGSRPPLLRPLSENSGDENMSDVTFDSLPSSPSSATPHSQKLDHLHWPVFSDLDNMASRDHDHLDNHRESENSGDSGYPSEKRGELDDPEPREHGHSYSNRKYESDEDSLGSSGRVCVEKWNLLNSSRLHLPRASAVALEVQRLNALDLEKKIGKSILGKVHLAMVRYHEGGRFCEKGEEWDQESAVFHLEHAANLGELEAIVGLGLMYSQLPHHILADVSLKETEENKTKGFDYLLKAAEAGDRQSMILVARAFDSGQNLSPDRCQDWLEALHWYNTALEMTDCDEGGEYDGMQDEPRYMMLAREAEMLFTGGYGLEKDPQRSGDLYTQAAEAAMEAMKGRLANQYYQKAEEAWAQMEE

MDA-MB-436 = assay: Antiproliferative activity against human MDA-MB-436 cells assessed as decrease in cell viability after 24 hrs by MTT assay; type: functional, cell-based; conditions: MDA-MB-436, 24 h
[2] = target: T2, Eukaryotic elongation factor 2 kinase (Rattus norvegicus, UniProt P70531); assay: Inhibition of recombinant rat GST-tagged eEF2K expressed in Escherichia coli BL21 (DE3) cells using yeast eEF2 as substrate preincubated for 30 mins followed by ATP/[gamma-32P]-ATP addition measured after 10 mins
T2 sequence (P70531 whole entry): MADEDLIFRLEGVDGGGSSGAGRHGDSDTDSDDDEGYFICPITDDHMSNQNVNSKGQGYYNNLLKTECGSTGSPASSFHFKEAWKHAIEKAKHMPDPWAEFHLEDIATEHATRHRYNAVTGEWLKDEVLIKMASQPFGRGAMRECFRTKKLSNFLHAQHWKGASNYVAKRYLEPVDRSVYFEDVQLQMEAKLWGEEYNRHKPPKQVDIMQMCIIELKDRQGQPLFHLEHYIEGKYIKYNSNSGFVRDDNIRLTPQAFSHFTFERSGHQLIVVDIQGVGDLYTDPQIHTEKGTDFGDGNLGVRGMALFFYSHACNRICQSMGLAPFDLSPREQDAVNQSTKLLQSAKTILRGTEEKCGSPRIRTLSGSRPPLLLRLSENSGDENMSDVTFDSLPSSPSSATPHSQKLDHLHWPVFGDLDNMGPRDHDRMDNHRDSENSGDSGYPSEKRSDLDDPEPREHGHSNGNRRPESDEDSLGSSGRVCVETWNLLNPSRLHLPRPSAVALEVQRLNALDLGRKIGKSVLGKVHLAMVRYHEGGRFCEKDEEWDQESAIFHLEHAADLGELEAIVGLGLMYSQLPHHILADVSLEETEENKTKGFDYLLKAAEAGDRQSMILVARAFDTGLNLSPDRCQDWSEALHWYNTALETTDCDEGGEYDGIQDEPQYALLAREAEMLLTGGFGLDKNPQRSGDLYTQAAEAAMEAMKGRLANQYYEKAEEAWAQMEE

[3] = target: T1, Eukaryotic elongation factor 2 kinase; assay: Inhibition of N-terminal GST-tagged recombinant human eEF2K expressed in Escherichia coli using biotinylated myelin basic protein as substrate after 45 mins in presence of [gamma-33P]-ATP by scintillation counting method

Row | SMILES | IC50 (MDA-MB-231) [µM] | IC50 [1] [µM] | IC50 (MDA-MB-436) [µM] | IC50 [3] [µM] | IC50 [2] [µM]
1 | O=C(O)CC(NS(=O)(=O)c1cc(F)cc(F)c1)c1ccccc1F (centres undefined) | 73.5 | 19.4 | 89.3 |  | 
2 | O=C(O)CC(NS(=O)(=O)c1ccccc1)c1ccc(Cl)cc1Cl (centres undefined) | 57.8 | 33.4 | 59 |  | 
3 | CCC1(O)CC(C(C)C)[Se]C(c2ccc(C)cc2)=N1 (centres undefined) |  |  |  |  | 0.36
4 | O=C(O)CC(NS(=O)(=O)c1cccc([N+](=O)[O-])c1)c1ccccc1 (centres undefined) | > 100 | > 50 | > 100 |  | 
5 | O=C(O)CC(NS(=O)(=O)c1ccccc1)c1ccccc1 (centres undefined) | > 100 | > 50 | > 100 |  | 
6 | O=C(O)CC(NC(=O)c1cccc(Br)c1)c1ccccc1F (centres undefined) | > 100 | > 50 | > 100 |  | 
7 | O=C(O)CC(NS(=O)(=O)c1ccccc1)c1ccccc1F (centres undefined) | > 100 | > 50 | > 100 |  | 
8 | O=C(O)CC(NS(=O)(=O)c1cc(F)cc(F)c1)c1ccccc1 (centres undefined) | 79.3 | 37.8 | 69.4 |  | 
9 | N#Cc1ccc(S(=O)(=O)NC(CC(=O)O)c2ccccc2F)cc1 (centres undefined) | 69.7 | 27.5 | 77.7 |  | 
10 | CNC(=O)c1cc(Oc2ccc(NC(=O)Nc3ccc(Cl)c(C(F)(F)F)c3)cc2)ccn1 [SORAFENIB] | 2.8 |  | 4.2 |  | 
11 | O=C(O)CC(NS(=O)(=O)c1ccc(F)cc1)c1ccccc1 (centres undefined) | 88.4 | 31.2 | > 100 |  | 
12 | O=C(O)CC(NS(=O)(=O)c1ccc(C(F)(F)F)cc1)c1ccccc1F (centres undefined) | 47.1 | 11.6 | 55.6 |  | 
13 | CCCCCCCCCCCCCCCC[N+]1=C(C)N(Cc2ccccc2)CC1 |  |  |  | 0.06 | 
14 | O=C(O)CC(NS(=O)(=O)c1ccc(C(F)(F)F)cc1)c1ccc(Cl)cc1Cl (centres undefined) | 30.4 | 9.5 | 37.6 |  | 
15 | O=C(O)CC(NS(=O)(=O)c1cccc([N+](=O)[O-])c1)c1ccc(Cl)cc1Cl (centres undefined) | 77.8 | 44.5 | > 100 |  | 
16 | O=C(O)CC(NS(=O)(=O)c1ccccc1Br)c1ccccc1 (centres undefined) | > 100 | > 50 | > 100 |  | 
17 | N#Cc1ccc(S(=O)(=O)NC(CC(=O)O)c2ccccc2)cc1 (centres undefined) | 48.7 | 18.7 | 59.3 |  | 
18 | O=C(O)CC(NS(=O)(=O)c1ccc(OC(F)(F)F)cc1)c1ccccc1 (centres undefined) | > 100 | > 50 | > 100 |  | 
19 | O=C(O)CC(NS(=O)(=O)c1ccc(C(F)(F)F)cc1)c1ccccc1 (centres undefined) | 56.1 | 19.6 | 54.7 |  | 
20 | O=C(O)CC(NC(=O)c1ccc(F)cc1)c1ccccc1F (centres undefined) | 72.3 | 36.7 | > 100 |  | 
21 | O=C(O)CC(NS(=O)(=O)c1cc(F)cc(F)c1)c1ccc(Cl)cc1Cl (centres undefined) | 35.7 | 12.5 | 49.6 |  | 
22 | O=C(O)CC(NS(=O)(=O)c1ccccc1Br)c1ccc(Cl)cc1Cl (centres undefined) | > 100 | > 50 | > 100 |  | 
23 | COc1ccccc1C(=O)NC(CC(=O)O)c1ccccc1 (centres undefined) | > 100 | > 50 | > 100 |  | 

Continued, in another order:

Row | IC50 (MDA-MB-231) [µM] | IC50 [1] [µM] | IC50 (MDA-MB-436) [µM] | IC50 [3] [µM] | SMILES | IC50 [2] [µM]
24 | > 100 | > 50 | > 100 |  | COc1ccccc1S(=O)(=O)NC(CC(=O)O)c1ccc(C(C)(C)C)cc1 (centres undefined) | 
25 | 84.3 | 35.1 | > 100 |  | O=C(O)CC(NC(=O)c1ccc(F)cc1)c1ccccc1 (centres undefined) | 
26 | 82.5 | 28.4 | > 100 |  | O=C(O)CC(NC(=O)c1cccc(Br)c1)c1ccc(Cl)cc1Cl (centres undefined) | 
27 | 78.8 | 22.6 | 82.3 |  | CC(C)(C)c1ccc(C(CC(=O)O)NC(=O)c2ccc(C(F)(F)F)cc2)cc1 (centres undefined) | 
28 | 87.6 | 31.6 | > 100 |  | CC(C)(C)c1ccc(C(CC(=O)O)NC(=O)c2ccc(F)cc2)cc1 (centres undefined) | 
29 | > 100 | > 50 | > 100 |  | O=C(O)CC(NC(=O)c1c(Cl)cccc1Cl)c1ccccc1 (centres undefined) | 
30 | 49.2 | 19.9 | 57.3 |  | O=C(O)CC(NC(=O)c1ccc(Cl)cc1Cl)c1ccc(Cl)cc1Cl (centres undefined) | 
31 | > 100 | 44.4 | > 100 |  | COc1ccc(C(=O)NC(CC(=O)O)c2ccc(Cl)cc2Cl)cc1 (centres undefined) | 
32 | 67.2 | 29.3 | 78.2 |  | O=C(O)CC(NC(=O)c1ccc(Cl)cc1Cl)c1ccccc1 (centres undefined) | 
33 | > 100 | > 50 | > 100 |  | CC(C)(C)c1ccc(C(CC(=O)O)NS(=O)(=O)c2ccccc2)cc1 (centres undefined) | 
34 | 89.3 | 33.7 | > 100 |  | O=C(O)CC(NC(=O)c1ccc(Cl)cc1Cl)c1ccccc1F (centres undefined) | 
35 | 59.2 | 44.5 | 66.8 |  | O=C(O)CC(NC(=O)c1ccc(C(F)(F)F)cc1)c1ccccc1F (centres undefined) | 
36 | > 100 | > 50 | > 100 |  | CC(C)(C)c1ccc(C(CC(=O)O)NS(=O)(=O)c2ccc(OC(F)(F)F)cc2)cc1 (centres undefined) | 
37 | > 100 | > 50 | > 100 |  | COc1ccccc1C(=O)NC(CC(=O)O)c1ccc(Cl)cc1Cl (centres undefined) | 
38 | > 100 | 47.9 | > 100 |  | COc1ccc(C(=O)NC(CC(=O)O)c2ccc(C(C)(C)C)cc2)cc1 (centres undefined) | 
39 | > 100 | > 50 | > 100 |  | CC(C)(C)c1ccc(C(CC(=O)O)NC(=O)c2c(Cl)cccc2Cl)cc1 (centres undefined) | 
40 | 53.7 | 18.4 | 60.1 |  | CC(C)(C)c1ccc(C(CC(=O)O)NS(=O)(=O)c2ccc(C(F)(F)F)cc2)cc1 (centres undefined) | 
41 | 39.1 | 11.7 | 44.1 |  | O=C(O)CC(NC(=O)c1ccc(C(F)(F)F)cc1)c1ccc(Cl)cc1Cl (centres undefined) | 
42 | > 100 | > 50 | > 100 |  | COc1ccccc1C(=O)NC(CC(=O)O)c1ccc(C(C)(C)C)cc1 (centres undefined) | 
43 | > 100 | > 50 | > 100 |  | CC(C)(C)c1ccc(S(=O)(=O)NC(CC(=O)O)c2ccccc2)cc1 (centres undefined) | 
44 | > 100 | > 50 | > 100 |  | O=C(O)CC(NC(=O)c1cccc(Br)c1)c1ccccc1 (centres undefined) | 
45 | 66.2 | 38.5 | 68.9 |  | CC(C)(C)c1ccc(C(CC(=O)O)NS(=O)(=O)c2ccc(F)cc2)cc1 (centres undefined) | 
46 | 58.3 | 17.1 | 55.8 |  | O=C(O)CC(NC(=O)c1ccc(F)cc1)c1ccc(Cl)cc1Cl (centres undefined) | 
47 | > 100 | > 50 | > 100 |  | O=C(O)CC(NC(=O)c1c(Cl)cccc1Cl)c1ccc(Cl)cc1Cl (centres undefined) | 
48 | 67.8 | 23.8 | > 100 |  | CC(C)(C)c1ccc(C(CC(=O)O)NC(=O)c2ccc(Cl)cc2Cl)cc1 (centres undefined) | 
